Patent US8399417B2, “Food” (Ajinomoto Co., Inc., priority 2007, dated 2013)
Starred links: 1 amine or outer side, 2 acyl side, 3 side chain; linkers in the order of their positions; H or OH if unused. Non-standard residues stand in square brackets, D forms with d. No end group written: not given here. γGlu = O=C(O)[C@H](CCC(=O)[*:2])N[*:1]; Orn = NCCC[C@H](N)C(=O)O

Columns and labels:
human calcium receptor = molecular target: T1, human calcium receptor (Homo sapiens, UniProt P41180); experiment: Calcium receptor-activating effect: Ca ion concentration-dependent Cl ionic current in Xenopus laevis oocyte expression system; format: cell-based; settings: for Activity (lowest concentration at which current was detected): peptide added at 1,000 to 0.1 μM to potential-clamped oocytes, Table 1
T1 construct: expressed in transfected cells; host or cells: Xenopus laevis oocytes injected with cRNA; the gene was PCR-cloned from human kidney cDNA (Clontech) into pBR322
T1 sequence (P41180 20-1078): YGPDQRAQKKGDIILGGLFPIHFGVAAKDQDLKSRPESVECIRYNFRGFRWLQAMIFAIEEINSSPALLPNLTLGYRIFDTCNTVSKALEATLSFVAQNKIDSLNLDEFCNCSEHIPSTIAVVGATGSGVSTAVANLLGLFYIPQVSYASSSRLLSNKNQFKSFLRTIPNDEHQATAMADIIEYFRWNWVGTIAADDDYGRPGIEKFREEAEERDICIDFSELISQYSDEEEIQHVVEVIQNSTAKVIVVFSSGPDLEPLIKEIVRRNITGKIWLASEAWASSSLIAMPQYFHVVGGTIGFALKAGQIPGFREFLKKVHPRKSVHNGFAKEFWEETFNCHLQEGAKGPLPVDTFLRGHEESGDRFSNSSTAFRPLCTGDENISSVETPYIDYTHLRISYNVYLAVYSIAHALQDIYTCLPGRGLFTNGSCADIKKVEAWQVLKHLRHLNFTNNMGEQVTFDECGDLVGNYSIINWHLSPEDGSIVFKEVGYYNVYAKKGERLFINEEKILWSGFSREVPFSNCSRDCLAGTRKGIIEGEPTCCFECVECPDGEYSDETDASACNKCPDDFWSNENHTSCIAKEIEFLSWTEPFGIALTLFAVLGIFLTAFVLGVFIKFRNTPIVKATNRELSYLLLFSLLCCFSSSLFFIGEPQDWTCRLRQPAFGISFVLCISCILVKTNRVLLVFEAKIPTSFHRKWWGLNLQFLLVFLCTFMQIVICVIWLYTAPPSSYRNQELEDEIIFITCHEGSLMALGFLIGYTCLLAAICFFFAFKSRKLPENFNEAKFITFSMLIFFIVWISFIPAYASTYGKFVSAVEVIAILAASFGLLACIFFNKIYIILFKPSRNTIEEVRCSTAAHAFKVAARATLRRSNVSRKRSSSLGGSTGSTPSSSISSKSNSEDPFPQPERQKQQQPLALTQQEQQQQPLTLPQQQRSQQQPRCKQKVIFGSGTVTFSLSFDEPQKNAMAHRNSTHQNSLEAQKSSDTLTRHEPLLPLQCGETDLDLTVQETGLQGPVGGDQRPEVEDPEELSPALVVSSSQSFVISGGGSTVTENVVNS
Protocol: For evaluation of the calcium receptor-activating effect, a Ca ion concentration-dependent Cl ionic current measuring method using a Xenopus laevis oocyte expression system was used. If each activator is added to Xenopus laevis oocytes expressing the calcium receptor, intracellular Ca ions increase. Then, the Ca ion concentration-dependent Cl channel opens, and the intracellular current value changes as an ionic current. By measuring the change in the intracellular current value, whether the calcium receptor-activating effect is present or not can be determined.
Specifically, the abdomen of Xenopus laevis was opened, and an egg batch was taken out and then treated with a 1% collagenase solution at 20° C. for 2 hours to obtain individual oocytes. Into the oocytes, 50 nl of 1 μg/μl receptor cRNA or 50 nl of sterilized water per oocyte were injected by using a micro glass capillary, and the oocytes were cultured at 18° C. for 2 to 3 days. For the culture, a solution obtained by adding 2 mM pyruvic acid, 10 U/ml penicillin, and 10 μg/ml streptomycin to the solution in Reference Example 2 was used. After the culture, a test solution was added to the oocytes injected with cRNA or sterilized water. Electrophysiological measurement was performed by using an amplifier Geneclamp 500 (manufactured by Axon) and recording software AxoScope 9.0 (manufactured by Axon). The oocytes were membrane potential-clamped at −70 mV by the double electrode potential clamp method, and the intracellular current via the Ca ion concentration-dependent Cl ion was measured. The maximum value of the intracellular current was defined as the response current value.
The calcium receptor-activating effect of L-amino acids was evaluated by using the method described in Reference Example 6. That is, oocytes injected with cRNA of the calcium receptor or sterilized water were prepared, and membrane potential-clamped at −70 mV by the double electrode potential clamp method. To the potential-clamped oocytes, alanine (10 mM), arginine (10 mM), asparagine (10 mM), aspartic acid (10 mM), cysteine (10 mM), glutamine (10 mM), glutamic acid (10 mM), glycine (10 mM), histidine (10 mM), isoleucine (10 mM), leucine (10 mM), lysine (10 mM), methionine (10 mM), phenylalanine (10 mM), proline (10 mM), serine (10 mM), threonine (10 mM), tryptophan (10 mM), tyrosine (10 mM), valine (10 mM), ornithine (10 mM), taurine (10 mM), or hydroxyproline (10 mM) was added, and Ca ion concentration-dependent Cl response current was measured. […] 25, 2000, 97(9): 4814-9.
The calcium receptor-activating effect of D-cysteine was evaluated by using the method described in Reference Example 6. That is, oocytes injected with cRNA of the calcium receptor or sterilized water were prepared, and membrane potential-clamped at −70 mV by the double electrode potential clamp method. To the potential-clamped oocytes, D-cysteine (10 mM), L-cysteine (10 mM), D-tryptophan (10 mM), or L-tryptophan (10 mM) was added, and Ca ion concentration-dependent Cl response current was measured.
The calcium receptor-activating effect of a peptide was evaluated by using the method described in Reference Example 6. That is, oocytes injected with cRNA of the calcium receptor or sterilized water were prepared, and membrane potential-clamped at −70 mV by the double electrode potential clamp method.
The calcium receptor-activating effects of peptides were evaluated in the same manner as that of Reference Example 10. Each of the peptides shown in Table 1 was added to potential-clamped oocytes at 1,000 μM, 300 μM, 100 μM, 30 μM, 10 μM, 3 μM, 1 μM, 0.3 μM, and 0.1 μM, and Ca ion concentration-dependent Cl response current was measured.

[1] = Kokumi-imparting activity intensity, quantitative sensory evaluation test; format: in vivo, human; settings: 0.1 g/dl; for Kokumi intensity, Aftertaste / Kokumi intensity, Initial and middle taste: control 0, glutathione 3 points
Protocol: The quantitative sensory evaluation test was performed as follows. […] It should be noted that a sample, which became acidic after the sample had been dissolved, was adjusted with NaOH to pH 6.8 to 7.2 before use. […] The test was performed with n=3 based on the following sensory evaluation scores: control (0 point) and glutathione addition (3 points).
The quantitative sensory evaluation test was performed as follows. […] It should be noted that a sample, which became acidic after the sample had been dissolved, was adjusted with NaOH to pH 6.8 to 7.2 before use. The test was performed with n=5 based on the following sensory evaluation scores: control (0 point) and glutathione addition (3 points).
The quantitative sensory evaluation test was performed as follows. […] It should be noted that a sample, which became acidic after the sample had been dissolved, was adjusted with NaOH to pH 6.8 to 7.2 before use. The test was performed with n=12 based on the following sensory evaluation scores: control (0 point) and glutathione addition (3 points).

[2] = sodium glutamate, inosine monophosphate, sodium chloride solution, n=3, Table 3

Q: For Gly-Cys, which “calcium receptor-activating effect (Cl response current)” value (“calcium receptor-activating effect” below) (human calcium receptor; peptide 500 μM, FIG. 4) is on record?
A: definite calcium receptor-activating effect

Q: With `N[C@@H](CS)C(=O)O` [cysteine, reference compound] as the compound, how does the “calcium receptor-activating effect” value (human calcium receptor; L-amino acid 10 mM, FIG. 2) read?
A: definite calcium receptor-activating effect

Q: With [γGlu]-Val-[Orn] as the compound, how does the “Activity (lowest concentration at which current was detected)” value (from here on “Activity”) (human calcium receptor) read?
A: 100 µM

Q: With [γGlu]-Cys as the compound, how does the “calcium receptor-activating effect” value (human calcium receptor; peptide 50 μM, FIG. 4) read?
A: definite calcium receptor-activating effect

Q: What about the “Kokumi intensity, Aftertaste” value ([1]; n=5, Table 4) of the same compound?
A: 2.0 points

Q: What about the “Kokumi intensity, Initial and middle taste” value ([1]; n=5, Table 4) of the same compound?
A: 2.0 points

Q: With [γGlu]-Gly-Gly as the compound, how does the “Activity” value (human calcium receptor) read?
A: 30 µM

Q: With [γGlu]-Val-Lys as the compound, how does the “Activity” value (human calcium receptor) read?
A: 1,000 μM

Q: Which “Activity” value (human calcium receptor) does the source give for [γGlu]-Val-Pro here?
A: 30 µM

Q: Which “calcium receptor-activating effect” value (human calcium receptor; peptide 50 μM, FIG. 4) does the source give for Glu-Cys here?
A: definite calcium receptor-activating effect

Q: With γ-Glu-Cys(S-allyl)-Gly as the compound, how does the “Activity” value (human calcium receptor) read?
A: 100 µM

Q: For [γGlu]-Thr, which “calcium receptor-activating effect” value (human calcium receptor; peptide 50 μM, FIG. 4) is on record?
A: definite calcium receptor-activating effect

Q: With `N[C@H](CS)C(=O)O` [D-cysteine] as the compound, how does the “calcium receptor-activating effect” value (human calcium receptor; D-amino acid 10 mM, FIG. 3) read?
A: definite calcium receptor-activating effect

Q: With [γGlu]-Val-Val as the compound, how does the “Activity” value (human calcium receptor) read?
A: 1,000 μM

Q: With [γGlu]-Val-Arg as the compound, how does the “Activity” value (human calcium receptor) read?
A: 1,000 μM

Q: With `N[C@@H](Cc1ccccc1)C(=O)O` [phenylalanine, reference compound] as the compound, how does the “calcium receptor-activating effect” value (human calcium receptor; L-amino acid 10 mM, FIG. 2) read?
A: definite calcium receptor-activating effect

Q: With Asp-Gly as the compound, how does the “calcium receptor-activating effect” value (human calcium receptor; peptide 1 mM, FIG. 4) read?
A: definite calcium receptor-activating effect

Q: Which “Activity” value (human calcium receptor) does the source give for γ-Glu-Tau here?
A: 300 µM

Q: For [γGlu]-Val-Cys, which “Activity” value (human calcium receptor) is on record?
A: 10 µM

Q: With [γGlu]-Val-Thr as the compound, how does the “Activity” value (human calcium receptor) read?
A: 1,000 μM

Q: With [γGlu]-Val as the compound, how does the “calcium receptor-activating effect” value (human calcium receptor; peptide 50 μM, FIG. 4) read?
A: definite calcium receptor-activating effect

Q: What about the “Kokumi intensity, Aftertaste” value ([1]; n=3, Table 3) of the same compound?
A: 1.0 points

Q: And the “Kokumi intensity, Aftertaste” value ([1]; n=5, Table 4)?
A: 1.0 points

Q: What about the “Kokumi intensity, Initial and middle taste” value ([1]; n=5, Table 4) of the same compound?
A: 3.0 points

Q: What about the “Kokumi intensity, Initial and middle taste” value [1, 2] of the same compound?
A: 3.0 points

Q: For [γGlu]-Ser-Gly, which “Activity” value (human calcium receptor) is on record?
A: 30 µM

Q: Which results are given for [γGlu]-Ala?
A: calcium receptor-activating effect (Cl response current) (human calcium receptor; peptide 50 μM, FIG. 4): definite calcium receptor-activating effect; Kokumi intensity, Aftertaste ([1]; n=3, Table 3): 0.2 points; Kokumi intensity, Initial and middle taste [1, 2]: 0.5 points

Q: For [γGlu]-Val-Asn, which “Activity” value (human calcium receptor) is on record?
A: 30 µM

Q: For `N[C@@H](Cc1c[nH]c2ccccc12)C(=O)O` [tryptophan, reference compound], which “calcium receptor-activating effect” value (human calcium receptor; L-amino acid 10 mM, FIG. 2) is on record?
A: definite calcium receptor-activating effect

Q: For γ-Glu-t-Leu, which “Activity” value (human calcium receptor) is on record?
A: 100 µM

Q: With [γGlu]-Val-Gln as the compound, how does the “Activity” value (human calcium receptor) read?
A: 10 µM

Q: For γ-Glu-Val-Asp, which “Activity” value (human calcium receptor) is on record?
A: 1,000 μM

Q: For [γGlu]-[γGlu]-Val, which “Activity” value (human calcium receptor) is on record?
A: 1,000 μM

Q: With [γGlu]-Val-Ser as the compound, how does the “Activity” value (human calcium receptor) read?
A: 30 µM

Q: With [γGlu]-Val-Met as the compound, how does the “Activity” value (human calcium receptor) read?
A: 1,000 μM

Q: With Leu-Asp as the compound, how does the “calcium receptor-activating effect” value (human calcium receptor; peptide 1 mM, FIG. 4) read?
A: definite calcium receptor-activating effect

Q: Which “calcium receptor-activating effect” value (human calcium receptor; peptide 500 μM, FIG. 4) does the source give for [γGlu]-Met here?
A: definite calcium receptor-activating effect

Q: What about the Taste profile ([1]; n=3, Table 3) of the same compound?
A: Thickness and growth are slightly

Q: What about the “Kokumi intensity, Aftertaste” value ([1]; n=3, Table 3) of the same compound?
A: 0.4 points

Q: What about the “Kokumi intensity, Initial and middle taste” value [1, 2] of the same compound?
A: 1.5 points

Q: With [γGlu]-Val-Phe as the compound, how does the “Activity” value (human calcium receptor) read?
A: 30 µM

Q: Which “calcium receptor-activating effect” value (human calcium receptor; L-amino acid 10 mM, FIG. 2) does the source give for `N[C@@H](Cc1ccc(O)cc1)C(=O)O` [tyrosine, reference compound] here?
A: definite calcium receptor-activating effect

Q: With [γGlu]-Val-His as the compound, how does the “Activity” value (human calcium receptor) read?
A: 100 µM

Q: Which “calcium receptor-activating effect” value (human calcium receptor; peptide 50 μM, FIG. 4) does the source give for `N[C@@H](CCC(=O)N[C@@H](CSN=O)C(=O)NCC(=O)O)C(=O)O` [γ-Glu-Cys(SNO)-Gly] here?
A: definite calcium receptor-activating effect

Q: Which “calcium receptor-activating effect” value (human calcium receptor; peptide 1 mM, FIG. 4) does the source give for Cys-Met here?
A: definite calcium receptor-activating effect

Q: Which “Activity” value (human calcium receptor) does the source give for [γGlu]-Val-Glu here?
A: 1,000 μM

Q: For [γGlu]-Gly, which “calcium receptor-activating effect” value (human calcium receptor; peptide 500 μM, FIG. 4) is on record?
A: definite calcium receptor-activating effect

Q: With γ-Glu-Orn as the compound, how does the “calcium receptor-activating effect” value (human calcium receptor; peptide 500 μM, FIG. 4) read?
A: definite calcium receptor-activating effect

Q: For `N[C@@H](Cc1c[nH]cn1)C(=O)O` [histidine, reference compound], which “calcium receptor-activating effect” value (human calcium receptor; L-amino acid 10 mM, FIG. 2) is on record?
A: definite calcium receptor-activating effect

Q: For γ-Glu-Cys(S-Me)-Gly, which “Activity” value (human calcium receptor) is on record?
A: 3 µM

Q: With Cys-Gly as the compound, how does the “calcium receptor-activating effect” value (human calcium receptor; peptide 1 mM, FIG. 4) read?
A: definite calcium receptor-activating effect
